Reference: patent publication US20140128385A1 (NOVARTIS AG, priority 2011, published 2014)
Structures can show the parent of a compound that is named as a salt.

What follows are compounds tested against T1, BACE-2 (Homo sapiens, UniProt Q9Y5Z0) (assay: assay for inhibition of BACE-2).
T1 construct: Recombinant BACE-2 (extracellular domain, expressed in baculovirus and purified using standard methods); made in house
T1 sequence (Q9Y5Z0 63-473 limits assumed): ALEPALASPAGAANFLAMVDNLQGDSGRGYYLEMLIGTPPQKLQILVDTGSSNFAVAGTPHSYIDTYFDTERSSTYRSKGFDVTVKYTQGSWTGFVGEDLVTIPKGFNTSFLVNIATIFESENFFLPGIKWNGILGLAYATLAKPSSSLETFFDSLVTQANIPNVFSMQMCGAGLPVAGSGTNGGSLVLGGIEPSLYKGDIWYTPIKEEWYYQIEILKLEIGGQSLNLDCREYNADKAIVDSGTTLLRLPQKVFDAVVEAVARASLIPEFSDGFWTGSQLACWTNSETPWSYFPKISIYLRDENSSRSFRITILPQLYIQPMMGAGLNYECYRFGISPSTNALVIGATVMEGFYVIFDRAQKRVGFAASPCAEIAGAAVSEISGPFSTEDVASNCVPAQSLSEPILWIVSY
Assay type: biochemical

Compared with `NC1=NC(c2cc(NC(=O)c3ccc(Br)cn3)ccc2F)(C(F)F)COC1` (stereo not shown) [Example 42, 5-Bromo-pyridine-2-carboxylic acid [3-(5-amino-3-difluoromethyl-3,6-dihydro-2H-[1,4]oxazin-3-yl)-4-fluoro-phenyl]-amide hydrochloride], `NC1=N[C@@](c2cc(NC(=O)c3ccc(Br)cn3)ccc2F)(C(F)F)COC1` [Example 118] is 4.8-fold lower in IC50: 53 nM for the first, 11 nM for the second.

Going from `NC1=NC(c2cc(NC(=O)c3ccc(Cl)cn3)ccc2F)(C(F)F)COC1` (stereo not shown) [Example 43] to `N#Cc1ccc(C(=O)Nc2ccc(F)c([C@]3(C(F)F)COCC(N)=N3)c2)nc1` [Example 112, 5-Cyano-pyridine-2-carboxylic acid [3-((R)-5-amino-3-difluoromethyl-3,6-dihydro-2H-[1,4]oxazin-3-yl)-4-fluoro-phenyl]-amide hydrochloride], the IC50 rises from 28 nM to 97 nM (3.5-fold).

Going from `Cc1cc(Cl)cnc1C(=O)Nc1ccc(F)c([C@]2(C(F)F)COCC(N)=N2)c1` [Example 44] to `Cc1cc(Br)cnc1C(=O)Nc1ccc(F)c([C@]2(C(F)F)COCC(N)=N2)c1` [Example 45], the IC50 rises from 5 nM to 10 nM (2-fold). The first is the more potent here.

Going from `NC1=N[C@@](c2cc(NC(=O)c3ncc(C(F)(F)F)cc3Cl)ccc2F)(C(F)F)COC1` [Example 46] to `NC1=N[C@@](c2cc(NC(=O)c3ncc(Cl)cc3Cl)ccc2F)(C(F)F)COC1` [Example 111], the IC50 falls from 130 nM to 7 nM (19-fold).

Compared with `NC1=N[C@@](c2cc(NC(=O)c3ccc(C(F)(F)F)cn3)ccc2F)(C(F)F)COC1` [Example 47], `NC1=N[C@@](c2cc(NC(=O)c3cnc(OCC(F)(F)F)cn3)ccc2F)(C(F)F)COC1` [Example 124] is 6.5-fold higher in IC50: 251 nM for the first, 1630 nM for the second.

`Cc1cnc(C(=O)Nc2ccc(F)c([C@]3(C(F)F)COCC(N)=N3)c2)cn1` [Example 48] and `NC1=N[C@@](c2cc(NC(=O)c3cnc(C(F)F)cn3)ccc2F)(C(F)F)COC1` [Example 122] are within 1.5-fold of each other in IC50: 511 nM for the first, 514 nM for the second.

First: COc1ccc(C(=O)Nc2cccc([C@]3(C)CO[C@@](C)(C(F)(F)F)C(N)=N3)c2)nc1 [Example 67]
Second: COc1ccc(C(=O)Nc2ccc(F)c([C@]3(C)CO[C@@](C)(C(F)(F)F)C(N)=N3)c2)nc1 [Example 69]
The IC50 of the first is 27-fold higher: 27 nM for the first, 1 nM for the second. The second is the more potent here.

First: C[C@@]1(c2cc(NC(=O)c3ccc(Br)cn3)ccc2F)CO[C@@](C)(C(F)(F)F)C(N)=N1 [Example 68]
Second: C[C@@]1(c2cc(NC(=O)c3ccc(C#N)cn3)ccc2F)CO[C@@](C)(C(F)(F)F)C(N)=N1 [Example 73]
The IC50 of the first is 9-fold lower: 3 nM for the first, 27 nM for the second. The first is the more potent here.

`C[C@@]1(c2cc(NC(=O)c3ncc(C#N)cn3)ccc2F)CO[C@@](C)(C(F)(F)F)C(N)=N1` [Example 70] and `C[C@@]1(c2cc(NC(=O)c3ncc(Br)cn3)ccc2F)CO[C@@](C)(C(F)(F)F)C(N)=N1` [Example 71, 5-Bromo-pyrimidine-2-carboxylic acid [3-((3R,6R)-5-amino-3,6-dimethyl-6-trifluoromethyl-3,6-dihydro-2H-[1,4]oxazin-3-yl)-4-fluoro-phenyl]-amide hydrochloride] are within 1.5-fold of each other in IC50: 4 nM for the first, 3 nM for the second.

First: COCCOc1cnc(C(=O)Nc2ccc(F)c([C@]3(C)CO[C@@](C)(C(F)(F)F)C(N)=N3)c2)cn1 [Example 74]
Second: COCCOc1cnc(C(=O)Nc2cccc(C3(C(F)F)COCC(N)=N3)c2)cn1 (stereo not shown) [Example 109]
The IC50 of the first is lower: 514 nM for the first, > 10000 nM for the second.

Going from `CC1(C)OCC(c2cc(NC(=O)c3ccc(C#N)cn3)ccc2F)(C(F)F)N=C1N` (stereo not shown) [Example 79, 5-Cyano-pyridine-2-carboxylic acid[3-(5-amino-3-difluoromethyl-6,6-dimethyl-3,6-dihydro-2H-[1,4]oxazin-3-yl)-4-fluoro-phenyl]-amide] to `CC1(C)OCC(c2cc(NC(=O)c3ccc(Br)cn3)ccc2F)(C(F)F)N=C1N` (stereo not shown) [Example 80], the IC50 falls from 316 nM to 64 nM (4.9-fold). The second is the more potent here.

First: NC1=NC(c2cc(NC(=O)c3ccc(Br)cn3)c(F)cc2F)(C(F)F)COC1 (stereo not shown) [Example 81]
Second: N#Cc1ccc(C(=O)Nc2cc(C3(C(F)F)COCC(N)=N3)c(F)cc2F)nc1 (stereo not shown) [Example 82]
The IC50 of the first is 3.5-fold higher: 4290 nM for the first, 1230 nM for the second.

Going from `COc1cc(Br)cnc1C(=O)Nc1cc(C2(C(F)F)COCC(N)=N2)c(F)cc1F` (stereo not shown) [Example 83] to `NC1=NC(c2cc(NC(=O)c3ncc(Br)cc3O)c(F)cc2F)(C(F)F)COC1` (stereo not shown) [Example 84], the IC50 falls from 5880 nM to 3440 nM (1.7-fold).

Compared with `NC1=N[C@](CF)(c2cc(NC(=O)c3ccc(Cl)cn3)ccc2F)COC1` [Example 85, 5-Chloro-pyridine-2-carboxylic acid [3-((R)-5-amino-3-fluoromethyl-3,6-dihydro-2H-[1,4]oxazin-3-yl)-4-fluoro-phenyl]-amide hydrochloride], `NC1=NC(CF)(c2cc(NC(=O)c3ccc(Cl)cn3)ccc2F)COC1` (stereo not shown) [Example 87] is 3.1-fold higher in IC50: 8 nM for the first, 25 nM for the second. The first is the more potent here.

Going from `NC1=NC(CF)(c2cc(NC(=O)c3ccc(Br)cn3)ccc2F)COC1` (stereo not shown) [Example 86] to `N#Cc1ccc(C(=O)Nc2ccc(F)c(C3(CF)COCC(N)=N3)c2)nc1` (stereo not shown) [Example 89], the IC50 rises from 32 nM to 152 nM (4.8-fold).

Going from `NC1=NC(CF)(c2cc(NC(=O)c3ncc(Cl)cc3Cl)ccc2F)COC1` (stereo not shown) [Example 88] to `Cc1cc(Cl)cnc1C(=O)Nc1ccc(F)c([C@]2(CF)COCC(N)=N2)c1` [Example 92], the IC50 falls from 12 nM to 0.4 nM (30-fold). The second is the more potent here.

Going from `Cc1cc(Br)cnc1C(=O)Nc1ccc(F)c(C2(CF)COCC(N)=N2)c1` (stereo not shown) [Example 90] to `Cc1cc(Br)cnc1C(=O)Nc1ccc(F)c([C@]2(CF)COCC(N)=N2)c1` [Example 91], the IC50 falls from 11 nM to 6 nM (1.8-fold).

Compared with `Cl.[2H]c1nc(C(=O)Nc2ccc(F)c([C@]3(CF)COCC(N)=N3)c2)c(C([2H])([2H])[2H])c([2H])c1Cl` [Example 93], `Cl.[2H]c1nc(C(=O)Nc2ccc(F)c([C@]3(C(F)F)COCC(N)=N3)c2)c(C([2H])([2H])[2H])c([2H])c1Cl` [Example 115] is 2.1-fold higher in IC50: 1.4 nM for the first, 3 nM for the second. The first is the more potent here.

First: NC1=N[C@](CF)(c2cc(NC(=O)c3ncc(Br)cc3O)ccc2F)COC1 [Example 94]
Second: COc1cc(Br)cnc1C(=O)Nc1ccc(F)c([C@]2(CF)COCC(N)=N2)c1 [Example 95]
The IC50 of the first is 1.6-fold lower: 33 nM for the first, 53 nM for the second.

First: NC1=N[C@@](c2cc(NC(=O)c3ccc(Br)cn3)ccc2F)(C(F)F)CCOC1 [Example 97]
Second: NC1=NC(c2cc(NC(=O)c3ccc(Br)cn3)ccc2F)(C(F)(F)F)CCOC1 (stereo not shown) [Example 99]
The IC50 of the first is 3.4-fold lower: 11 nM for the first, 37 nM for the second. The first is the more potent here.

Compared with `N#Cc1ccc(C(=O)Nc2ccc(F)c(C3(C(F)(F)F)CCOCC(N)=N3)c2)nc1` (stereo not shown) [Example 98, 5-Cyano-pyridine-2-carboxylic acid [3-(3-amino-5-trifluoromethyl-2,5,6,7-tetrahydro-[1,4]oxazepin-5-yl)-4-fluoro-phenyl]-amide hydrochloride], `CC1(c2cc(NC(=O)c3ccc(Cl)cn3)ccc2F)N=C(N)COCC1(F)F` (stereo not shown) [Example 100, N-(3-(3-amino-6,6-difluoro-5-methyl-2,5,6,7-tetrahydro-1,4-oxazepin-5-yl)-4-fluorophenyl)-5-chloropicolinamide] is 8.5-fold lower in IC50: 144 nM for the first, 17 nM for the second.

First: CC1(c2cc(NC(=O)c3ccc(Br)cn3)ccc2F)N=C(N)COCC1(F)F (stereo not shown) [Example 101]
Second: CCOc1ccc(C(=O)Nc2ccc(F)c([C@]3(C(F)F)COCC(N)=N3)c2)nc1 [Example 120]
The IC50 of the first is 41-fold lower: 26 nM for the first, 1060 nM for the second. The first is the more potent here.

Going from `NC1=NC(c2cccc(NC(=O)c3cc(Br)co3)c2)(C(F)F)COC1` (stereo not shown) [Example 102] to `NC1=N[C@@](c2cc(NC(=O)c3cc(Br)co3)ccc2F)(C(F)F)COC1` [Example 125], the IC50 falls from 240 nM to 102 nM (2.4-fold). The second is the more potent here.

Compared with `NC1=NC(c2cccc(NC(=O)c3ccc(O)nn3)c2)(C(F)F)COC1` (stereo not shown) [Example 103], `Cc1nc(C(=O)Nc2cccc(C3(C(F)F)COCC(N)=N3)c2)co1` (stereo not shown) [Example 104] is lower in IC50: > 10000 nM for the first, 309 nM for the second.

`CCc1nc(C(=O)Nc2cccc(C3(C(F)F)COCC(N)=N3)c2)co1` (stereo not shown) [Example 105] and `Cc1nc(C(=O)Nc2cccc(C3(C(F)F)COCC(N)=N3)c2)c(C)o1` (stereo not shown) [Example 106] are within 1.5-fold of each other in IC50: 1020 nM for the first, 1040 nM for the second.

Going from `COc1cc(Br)cnc1C(=O)Nc1cccc(C2(C(F)F)COCC(N)=N2)c1` (stereo not shown) [Example 107] to `NC1=NC(c2cccc(NC(=O)c3ncc(Br)cc3O)c2)(C(F)F)COC1` (stereo not shown) [Example 108], the IC50 falls from 133 nM to 24 nM (5.5-fold).

First: NC1=NC(c2cccc(NC(=O)c3cnc(C(F)F)cn3)c2)(C(F)F)COC1 (stereo not shown) [Example 110]
Second: NC1=N[C@@](c2cc(NC(=O)c3cnc(OCC(F)F)cn3)ccc2F)(C(F)F)COC1 [Example 123]
The IC50 of the first is 1.9-fold higher: 3550 nM for the first, 1830 nM for the second.

First: NC1=N[C@@](c2cc(NC(=O)c3ncc(F)cc3F)ccc2F)(C(F)F)COC1 [Example 113]
Second: NC1=N[C@@](c2cc(NC(=O)c3ncc(Br)cc3Cl)ccc2F)(C(F)F)COC1 [Example 117]
The IC50 of the first is 2.2-fold higher: 29 nM for the first, 13 nM for the second. The second is the more potent here.

`Cc1c(C(=O)Nc2ccc(F)c([C@]3(C(F)F)COCC(N)=N3)c2)oc2ccc(Br)cc12` [Example 114] and `Cc1nc(C(=O)Nc2ccc(F)c([C@]3(C(F)F)COCC(N)=N3)c2)c(C)o1` [Example 128] are within 1.5-fold of each other in IC50: 116 nM for the first, 95 nM for the second.

Going from `Cl.[2H]c1nc(C(=O)Nc2ccc(F)c([C@]3(C(F)F)COCC(N)=N3)c2)c(C([2H])([2H])[2H])c([2H])c1Br` [Example 116] to `NC1=N[C@@](c2cc(NC(=O)c3ncc(Br)cc3O)ccc2F)(C(F)F)COC1` [Example 119], the IC50 rises from 9 nM to 14 nM (1.6-fold).

Going from `NC1=N[C@@](c2cc(NC(=O)c3cc4ccccn4n3)ccc2F)(C(F)F)COC1` [Example 126] to `NC1=N[C@@](c2cc(NC(=O)c3cn4ccccc4n3)ccc2F)(C(F)F)COC1` [Example 129], the IC50 rises from 550 nM to 1630 nM (3-fold).

`Cc1nc(C(=O)Nc2ccc(F)c([C@]3(C(F)F)COCC(N)=N3)c2)co1` [Example 127] and `COc1cc(Br)cnc1C(=O)Nc1ccc(F)c([C@]2(C(F)F)COCC(N)=N2)c1` [Example 130] are within 1.5-fold of each other in IC50: 35 nM for the first, 42 nM for the second.
